How the values were obtained:
Format in all cases: in vivo
[1] = system: foxtail, giant (giant foxtail, Setaria faberii); test: Test A pre-/postemergence: foxtail, giant; conditions: for Foxtail, Giant plant response rating: Postemergence; for Plant response rating, Foxtail, Giant: Preemergence
Method in brief: (§1)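 Pre: directed soil spray after planting in loam + sand. Post: same formulation (non-phytotoxic solvent + surfactant) on 1–2-leaf plants, 2–10 cm. Greenhouse ~10 d; visual injury 0–100 vs untreated.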

[2] = system: morningglory (Ipomoea spp.); test: Test A pre-/postemergence: morningglory
Method in brief: as §1

[3] = system: pigweed (Amaranthus retroflexus); test: Test A pre-/postemergence: pigweed
Method in brief: as §1

[4] = system: velvetleaf (Abutilon theophrasti); test: Test A pre-/postemergence: velvetleaf
Method in brief: as §1

[5] = system: wheat (Triticum aestivum); test: Test A pre-/postemergence: wheat
Method in brief: as §1

[6] = system: winter wheat (Triticum aestivum); test: Test C pre-/postemergence: winter wheat
Method in brief: (§2)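 Visual injury scored 0–100 (100 = complete control) against untreated controls after 13–15 greenhouse days. Surfactant-containing solvent formulations applied either to soil after sowing (loam/sand) or over 1- to 4-leaf plants, 2–18 cm tall.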

corn (Zea mays) = test: Test C pre-/postemergence: corn
Method in brief: as §2

kochia (Kochia scoparia) = test: Test C pre-/postemergence: kochia
Method in brief: as §2

[7] = system: morningglory (Ipomoea coccinea); test: Test C pre-/postemergence: morningglory
Method in brief: as §2

[8] = system: ragweed (common ragweed, Ambrosia elation); test: Test C pre-/postemergence: ragweed
Method in brief: as §2

[9] = system: velvetleaf (Abutilon theophrasti); test: Test C pre-/postemergence: velvetleaf
Method in brief: as §2

[10] = system: chickweed (common chickweed, Stellaria media); test: Test C postemergence: chickweed
Method in brief: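 Response values are visual ratings, 0 (no effect) to 100 (complete control), made by comparison with untreated controls 13 to 15 days after postemergence treatment of greenhouse-grown potted plants that were 2 to 18 cm high at spraying.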

[11] = Postemergence, 125 g ai/ha, 0 to 100 scale, 0 is no effect, 100 is complete control
[12] = Postemergence, 500 g ai/ha, visual rating on 0 to 100 scale (0 no effect, 100 complete control), approximately ten days
[13] = Preemergence, 125 g ai/ha, 0 to 100 scale where 0 is no effect and 100 is complete control
[14] = Preemergence, 500 g ai/ha, 0 to 100 scale (0 no effect, 100 complete control)
[15] = Postemergence, 31 g ai/ha, scale 0 to 100 (0 no effect, 100 complete control)
[16] = Postemergence, 62 g ai/ha, scale 0 to 100 (0 no effect, 100 complete control)
[17] = Postemergence, 125 g ai/ha, scale 0 to 100, 0 no effect, 100 complete control
[18] = Postemergence, 250 g ai/ha, scale 0 to 100
[19] = Preemergence, 62 g ai/ha, scale of 0 to 100, 0 is no effect, 100 is complete control
[20] = Preemergence, 125 g ai/ha, scale 0 to 100, 0 no effect, 100 complete control
[21] = Preemergence, 250 g ai/ha, scale 0 to 100, 0 no effect, 100 complete control
[22] = Preemergence, 31 g ai/ha, scale of 0 to 100, 0 is no effect, 100 is complete control

Fc1ccc(-n2nc(Cc3ccnc(C(F)(F)F)c3)c(OCC(F)(F)F)n2)cc1 [Compound 142]
Foxtail, Giant plant response rating ([1]; 125 g ai/ha, 0 to 100 scale, 0 is no effect, 100 is complete control): 100
Foxtail, Giant plant response rating ([1]; 500 g ai/ha, visual rating on 0 to 100 scale (0 no effect, 100 complete control), approximately ten days): 100
Plant response rating, Foxtail, Giant ([1]; 125 g ai/ha, 0 to 100 scale where 0 is no effect and 100 is complete control): 100
Plant response rating, Foxtail, Giant ([1]; 500 g ai/ha, 0 to 100 scale (0 no effect, 100 complete control)): 100
Plant response rating, Morningglory [2, 11]: 100
Morningglory plant response rating [2, 12]: 100
Plant response rating, Morningglory [2, 13]: 50
Plant response rating, Morningglory [2, 14]: 80
Plant response rating, Pigweed [3, 11]: 100
Pigweed plant response rating [3, 12]: 100
Plant response rating, Pigweed [3, 13]: 100
Plant response rating, Pigweed [3, 14]: 100
Plant response rating, Velvetleaf [4, 11]: 100
Velvetleaf plant response rating [4, 12]: 100
Plant response rating, Velvetleaf [4, 13]: 60
Plant response rating, Velvetleaf [4, 14]: 90
Plant response rating, Wheat [5, 11]: 80
Wheat plant response rating [5, 12]: 80
Plant response rating, Wheat [5, 13]: 70
Plant response rating, Wheat [5, 14]: 80
Plant response rating, Wheat [6, 15]: 15
Plant response rating, Wheat [6, 16]: 25
Plant response rating, Wheat [6, 17]: 40
Plant response rating, Wheat [6, 18]: 45
Plant response rating, Wheat [6, 19]: 5
Plant response rating, Wheat [6, 20]: 35
Plant response rating, Wheat [6, 21]: 50
Plant response rating, Corn (corn (Zea mays); [15]): 30
Plant response rating, Corn (corn (Zea mays); [16]): 35
Plant response rating, Corn (corn (Zea mays); [17]): 35
Plant response rating, Corn (corn (Zea mays); [18]): 45
Plant response rating, Corn (corn (Zea mays); [22]): 0
Plant response rating, Corn (corn (Zea mays); [19]): 5
Plant response rating, Corn (corn (Zea mays); [20]): 20
Plant response rating, Corn (corn (Zea mays); [21]): 30
Plant response rating, Kochia (kochia (Kochia scoparia); [15]): 80
Plant response rating, Kochia (kochia (Kochia scoparia); [16]): 90
Plant response rating, Kochia (kochia (Kochia scoparia); [17]): 95
Plant response rating, Kochia (kochia (Kochia scoparia); [18]): 95
Plant response rating, Kochia (kochia (Kochia scoparia); [22]): 55
Plant response rating, Kochia (kochia (Kochia scoparia); [19]): 80
Plant response rating, Kochia (kochia (Kochia scoparia); [20]): 98
Plant response rating, Kochia (kochia (Kochia scoparia); [21]): 100
Plant response rating, Morningglory [7, 15]: 60
Plant response rating, Morningglory [7, 17]: 60
Plant response rating, Morningglory [7, 18]: 80
Plant response rating, Morningglory [7, 19]: 35
Plant response rating, Ragweed [8, 15]: 65
Plant response rating, Ragweed [8, 16]: 70
Plant response rating, Ragweed [8, 17]: 75
Plant response rating, Ragweed [8, 18]: 75
Plant response rating, Ragweed [8, 22]: 40
Plant response rating, Ragweed [8, 19]: 40
Plant response rating, Ragweed [8, 20]: 70
Plant response rating, Ragweed [8, 21]: 80
Plant response rating, Velvetleaf [9, 15]: 30
Plant response rating, Velvetleaf [9, 16]: 50
Plant response rating, Velvetleaf [9, 17]: 55
Plant response rating, Velvetleaf [9, 18]: 75
Plant response rating, Velvetleaf [9, 22]: 35
Plant response rating, Velvetleaf [9, 19]: 75
Plant response rating, Velvetleaf [9, 20]: 80
Plant response rating, Velvetleaf [9, 21]: 100
Plant response rating, Chickweed ([10]; 31 g ai/ha, scale 0 to 100 (0 no effect, 100 complete control)): 85
Plant response rating, Chickweed ([10]; 62 g ai/ha, scale 0 to 100 (0 no effect, 100 complete control)): 98
Plant response rating, Chickweed ([10]; 125 g ai/ha, scale 0 to 100, 0 no effect, 100 complete control): 98
Plant response rating, Chickweed ([10]; 250 g ai/ha, scale 0 to 100): 98
